One test deals with AsPC-1 (K-Ras G12D). As to the kind of experiment: Potency assay: pERK. The following applies: Homo sapiens, ASPC1. The format is cell-based.
A further test has as its target KRAS G12V (Homo sapiens, UniProt P01116+P62937, G12V). Put plainly: Disruption of BRAF RBD interaction with K-Ras (FRET / MOA assay). It counts as biochemical. The note with it: read-out: FRET G12V IC50. The method, then:
(§1) Compound is present in plate wells as a 10-point 3-fold dilution series starting at a final concentration of 30 μM. […] Compounds that facilitate disruption of a Ras:RAF complex are identified as those eliciting a decrease in the TR-FRET ratio relative to DMSO control wells.
(§2) Note—The following protocol describes a procedure for monitoring disruption of K-Ras G12C (GMP-PNP) binding to BRAF^RBD by a compound of the invention. This protocol may also be executed substituting other Ras proteins or nucleotides.
(§3) The purpose of this biochemical assay was to measure the ability of test compounds to facilitate ternary complex formation between a nucleotide-loaded K-Ras isoform and Cyclophilin A; the resulting ternary complex disrupts binding to a BRAF^RBD construct, inhibiting K-Ras signaling through a RAF effector. Data is reported as IC50 values.
(§4) Compound was present in plate wells as a 10-point 3-fold dilution series starting at a final concentration of 30 μM. […] Compounds that facilitate disruption of a K-Ras:RAF complex were identified as those eliciting a decrease in the TR-FRET ratio relative to DMSO control wells.

Another test has as its target KRAS G13C (Homo sapiens, UniProt P01116+P62937, G13C). The test is described as above. It counts as biochemical. On the procedure:
as §1, §2, §3, §4

The target of a further test is KRAS G13D (Homo sapiens, UniProt P01116+P62937, G13D). The description is as above. It counts as biochemical. The method, then:
as §1, §2, §3, §4

In another test the target is KRAS G12D (Homo sapiens, UniProt P01116+P62937, G12D). The test is described as above. It counts as biochemical. On the procedure: as §1, §2, §3, §4
In another test the target is KRAS G12C (Homo sapiens, UniProt P01116+P62937, G12C). Described as above. It counts as biochemical. On the procedure:
as §1, §2, §3, §4

Test [1] relates to NCI-H358 cells (K-Ras G12C). As to the kind of experiment: Potency assay: pERK. The following applies: Homo sapiens. The format is cell-based. The method, then:
The purpose of this assay is to measure the ability of test compounds to inhibit K-Ras in cells. […] This procedure measures a decrease in cellular pERK in response to test compounds. The procedure described below in NCI-H358 cells is applicable to K-Ras G12C.
NCI-H358 cells were grown and maintained using media and procedures recommended by the ATCC. On the day prior to compound addition, cells were plated in 384-well cell culture plates (40 μl/well) and grown overnight in a 37° C., 5% CO2 incubator. Test compounds were prepared in 10, 3-fold dilutions in DMSO, with a high concentration of 10 mM. On day of assay, 40 nl of test compound was added to each well of cell culture plate using an Echo550 liquid handler (LabCyte®). Concentrations of test compound were tested in duplicate. […]
In some experiments, cellular pERK level was determined using the AlphaLISA SureFire Ultra p-ERK1/2 Assay Kit (PerkinElmer). […] Signal was read on an Envision plate reader (PerkinElmer) using standard AlphaLISA settings. […] Signal was plotted vs. the decadal logarithm of compound concentration, and IC50 was determined by fitting a 4-parameter sigmoidal concentration response model.
In other experiments, cellular pERK was determined by In-Cell Western. […] Signal was plotted vs. the decadal logarithm of compound concentration, and IC50 was determined by fitting a 4-parameter sigmoidal concentration response model.

A further test deals with Capan-1 (K-Ras G12V). Put plainly: Potency assay: pERK. The following applies: Homo sapiens. It counts as cell-based.
For test [2], the system named is Capan-2 KRASG12V/wt xenograft model. As to the kind of experiment: Tumor growth in Capan-2 CDX model. The following applies: Compound A 100 mg/kg po bid daily, RMC-4550 20 mg/kg po every other day. It counts as in vivo, BALB/c nude mice. On the procedure:
Capan-2 cells were implanted in 50% Matrigel. Animals were randomized and treatment was initiated at average tumor volume of ˜180 mm3. […] Ns=no significance; ***p<0.001 by one-way ANOVA.
Once tumors reached an average size of ˜180 mm3, mice were randomized to treatment groups to start the administration of test articles or vehicle. […] Body weight and tumor volume (using calipers) was measured twice weekly until study endpoints.

The target of a further test is NRAS WT (Homo sapiens, UniProt P01111+P62937). Put plainly: Disruption of BRAF RBD interaction with Ras (FRET / MOA assay). The format is biochemical. The following applies: read-out: NRAS WT FRET data IC50. The method, boiled down:
(§5)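 Compounds were titrated in 10 points (3-fold, starting at 30 μM final) and assessed for promoting a Ras–Cyclophilin A ternary complex that blocks BRAF^RBD binding.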

For another test, the target named is NRAS G12C (Homo sapiens, UniProt P01111+P62937, G12C). The description is as above. The format is biochemical. The method, boiled down: as §5
A further test deals with NRAS Q61K (Homo sapiens, UniProt P01111+P62937, Q61K). The test is described as above. The format is biochemical. The following applies: read-out: NRAS Q61K FRET data IC50. In outline:
as §5

A further test addresses NRAS Q61R (Homo sapiens, UniProt P01111+P62937, Q61R). Described as above. The format is biochemical. The note with it: read-out: NRAS Q61R FRET data IC50. The method, boiled down: as §5
The target of a further test is KRAS Q61H (Homo sapiens, UniProt P01116+P62937, Q61H). Put plainly: Disruption of BRAF RBD interaction with K-Ras (FRET / MOA assay). The following applies: read-out: KRAS Q61H FRET data IC50. The format is biochemical. The method, then:
as §1, §2, §3, §4

The next test addresses KRAS G12S (Homo sapiens, UniProt P01116+P62937, G12S). The test is described as above. The format is biochemical. On the procedure: as §1, §2, §3, §4
Another test relates to NCI-H358 (K-Ras G12C). As to the kind of experiment: CellTiter-Glo Cell Viability Assay. The following applies: Homo sapiens, NCI-H358, 120 h; H358, 5-day treatment. It counts as cell-based. Background: In ATP-based viability assays light output follows the ATP content of the culture.

Where two headings read alike, the source gives them in different places. Some results are limits rather than exact numbers.

Our source for the EC50, IC50 and TGI values is US20230374035A1, “RAS INHIBITORS” (Revolution Medicines, Inc., priority 2019, published 2023).

Chain of KRAS G12C (P01116 1-188 isoform P01116-2 G12C): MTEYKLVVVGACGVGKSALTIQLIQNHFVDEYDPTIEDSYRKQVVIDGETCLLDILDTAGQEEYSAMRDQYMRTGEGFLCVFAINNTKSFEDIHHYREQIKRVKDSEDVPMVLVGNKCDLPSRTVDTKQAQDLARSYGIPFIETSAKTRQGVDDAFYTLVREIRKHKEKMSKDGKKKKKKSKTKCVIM
Chain of KRAS G12C (P62937 whole entry): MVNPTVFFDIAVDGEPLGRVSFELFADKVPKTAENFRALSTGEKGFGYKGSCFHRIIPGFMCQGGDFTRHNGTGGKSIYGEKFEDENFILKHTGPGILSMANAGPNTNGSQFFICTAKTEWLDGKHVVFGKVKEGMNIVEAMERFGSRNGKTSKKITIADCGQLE
Chain of KRAS G13C (P01116 1-188 isoform P01116-2 G13C): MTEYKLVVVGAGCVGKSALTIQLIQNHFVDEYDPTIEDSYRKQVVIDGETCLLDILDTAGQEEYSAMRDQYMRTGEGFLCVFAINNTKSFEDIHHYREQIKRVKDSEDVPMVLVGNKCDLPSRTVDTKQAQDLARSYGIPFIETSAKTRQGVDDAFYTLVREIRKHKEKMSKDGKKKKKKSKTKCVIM
Chain of KRAS G13C (P62937 whole entry): as the sequence (P62937 whole entry) above
Chain of NRAS WT (P01111 whole entry): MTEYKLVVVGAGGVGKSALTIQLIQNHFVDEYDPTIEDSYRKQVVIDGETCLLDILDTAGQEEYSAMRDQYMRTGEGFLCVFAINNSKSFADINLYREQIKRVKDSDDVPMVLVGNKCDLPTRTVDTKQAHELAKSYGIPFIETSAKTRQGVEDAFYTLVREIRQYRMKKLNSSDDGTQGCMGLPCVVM
Chain of NRAS WT (P62937 whole entry): as the sequence (P62937 whole entry) above
Chain of KRAS G12S (P01116 1-188 isoform P01116-2 G12S): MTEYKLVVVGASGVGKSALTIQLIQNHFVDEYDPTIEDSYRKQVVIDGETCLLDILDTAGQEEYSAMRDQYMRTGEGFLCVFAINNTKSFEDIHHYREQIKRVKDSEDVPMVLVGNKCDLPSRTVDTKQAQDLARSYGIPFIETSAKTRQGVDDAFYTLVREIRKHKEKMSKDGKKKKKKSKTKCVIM
Chain of KRAS G12S (P62937 whole entry): as the sequence (P62937 whole entry) above
Chain of NRAS Q61R (P01111 whole entry Q61R): as the sequence (P01111 whole entry) above, with Q61R counted along it
Chain of NRAS Q61R (P62937 whole entry): as the sequence (P62937 whole entry) above
Chain of NRAS G12C (P01111 whole entry G12C): as the sequence (P01111 whole entry) above, with G12C counted along it
Chain of NRAS G12C (P62937 whole entry): as the sequence (P62937 whole entry) above
Chain of KRAS G13D (P01116 1-188 isoform P01116-2 G13D): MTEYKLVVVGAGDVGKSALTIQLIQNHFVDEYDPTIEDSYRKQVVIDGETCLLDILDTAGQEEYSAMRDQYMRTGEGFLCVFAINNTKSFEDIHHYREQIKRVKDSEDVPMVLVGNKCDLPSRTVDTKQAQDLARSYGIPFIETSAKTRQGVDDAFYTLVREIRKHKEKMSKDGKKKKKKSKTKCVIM
Chain of KRAS G13D (P62937 whole entry): as the sequence (P62937 whole entry) above
Chain of KRAS G12V (P01116 1-188 isoform P01116-2 G12V): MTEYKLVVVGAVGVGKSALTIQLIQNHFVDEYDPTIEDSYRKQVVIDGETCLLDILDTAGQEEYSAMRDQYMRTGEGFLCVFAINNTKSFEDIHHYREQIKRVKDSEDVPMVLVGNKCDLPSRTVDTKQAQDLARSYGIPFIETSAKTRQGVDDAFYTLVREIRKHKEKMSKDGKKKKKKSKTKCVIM
Chain of KRAS G12V (P62937 whole entry): as the sequence (P62937 whole entry) above
Chain of KRAS Q61H (P01116 1-188 isoform P01116-2 Q61H): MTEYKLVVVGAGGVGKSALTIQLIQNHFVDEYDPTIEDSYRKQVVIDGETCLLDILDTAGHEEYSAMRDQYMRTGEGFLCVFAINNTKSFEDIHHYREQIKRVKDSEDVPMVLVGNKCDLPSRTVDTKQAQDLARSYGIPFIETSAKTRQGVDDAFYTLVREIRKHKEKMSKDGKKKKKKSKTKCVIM
Chain of KRAS Q61H (P62937 whole entry): as the sequence (P62937 whole entry) above
Chain of NRAS Q61K (P01111 whole entry Q61K): as the sequence (P01111 whole entry) above, with Q61K counted along it
Chain of NRAS Q61K (P62937 whole entry): as the sequence (P62937 whole entry) above
Chain of KRAS G12D (P01116 1-188 isoform P01116-2 G12D): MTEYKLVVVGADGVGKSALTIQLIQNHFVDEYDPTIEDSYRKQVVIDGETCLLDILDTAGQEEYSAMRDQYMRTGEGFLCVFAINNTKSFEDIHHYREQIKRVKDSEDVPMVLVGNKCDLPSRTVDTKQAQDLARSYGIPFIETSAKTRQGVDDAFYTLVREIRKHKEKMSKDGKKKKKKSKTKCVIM
Chain of KRAS G12D (P62937 whole entry): as the sequence (P62937 whole entry) above

By EC50 is commonly meant the concentration needed to bring the measured effect to its halfway point. A high value points to a need for much substance. Usually IC50 stands for the concentration that gives 50% inhibition. Take `CCn1c(-c2cnccc2COC)c2c3cc(ccc31)-c1cc(O)cc(c1)C[C@H](NC(=O)[C@H](C(C)C)N(C)C(=O)OC1CN(C)C1)C(=O)N1CCC[C@H](N1)C(=O)OCC(C)(C)C2` [Compound A74]: the EC50 came to 468 nM in the test on AsPC-1 (K-Ras G12D), 334 nM in test [1] and 413 nM with Capan-1 (K-Ras G12V). Moreover, the IC50 on KRAS G12V worked out at 3.67 µM; at KRAS G13C (read-out: FRET G13C IC50), 91 nM; at KRAS G13D, 212 nM; on KRAS G12D, 228 nM; at KRAS G12C (read-out: FRET G12C IC50), 450 nM.

The TGI is the reduction of tumour growth relative to the control group. For the compound `Cc1nc(N2CCC3(CC2)CO[C@@H](C)[C@H]3N)c(CO)nc1-c1cccc(Cl)c1Cl` [RMC-4550], the inhibition of tumour growth (TGI) in test [2] came to 39%.

For the compound `CCn1c(-c2cccnc2[C@H](C)OC)c2c3cc(ccc31)-c1cc(O)cc(c1)C[C@H](NC(=O)[C@H](C(C)C)N(C)C(=O)[C@@H]1CCN(C(=O)OC)[C@@H]1c1ccccc1)C(=O)N1CCC[C@H](N1)C(=O)OCC(C)(C)C2` (atropisomer, axis not shown) [Compound A501], the IC50 at NRAS WT is less than 10 nM; on NRAS G12C, less than 10 nM; at NRAS Q61K, 10 to 100 nM; on NRAS Q61R it was 10 to 100 nM; on KRAS Q61H, less than 10 nM; on KRAS G13C (read-out: KRAS G13C FRET data IC50), less than 10 nM. For the same compound, the IC50 against KRAS G12S, at KRAS G12C (read-out: KRAS G12C FRET data IC50) and with NCI-H358 (K-Ras G12C) was less than 10 nM in each case.
